Laboratory results as given in US10927100B2, “Degradable imidazolium oligomer and polymer for antimicrobial applications” (AGENCY FOR SCIENCE, TECHNOLOGY AND RESEARCH, priority 2017, dated 2021).
Converted amounts (≈) assume the structure as drawn. Read-outs that look alike come from different tables or passages of the source.

How the values were obtained:
[1] = tested on: Pseudomonas aeruginosa (Gram-negative); assay: Minimum inhibitory concentration, microdilution assay; assay type: cell-based; settings: for MIC: Pseudomonas aeruginosa
Procedure: (§1) Staphylococcus aureus (ATCC 6538, Gram-positive), Escherichia coli (ATCC 8739, Gram-negative), Pseudomonas aeruginosa (Gram-negative), and Candida albicans (ATCC 10231, fungus) were used as representative microorganisms to challenge the antimicrobial functions of the imidazolium salts. All bacteria and fungus were stored frozen at −80° C., and were grown overnight at 37° C. in Mueller Hinton Broth (MHB) prior to experiments. Fungus was grown overnight at 22° C. in Yeast Mold (YM) broth. […] The plates were incubated at 37° C. for 24 hours with constant shaking speed at 300 rpm. […] PBS solution containing microbial cells alone were used as negative controls. The assay was performed in four replicates and the experiments were repeated at least two times.

[2] = tested on: Staphylococcus aureus (ATCC 6538, Gram-positive); assay: as above; assay type: cell-based
Procedure: as §1

[3] = tested on: Candida albicans (ATCC 10231, fungus); assay: as above; assay type: cell-based; settings: for MIC: Candida albicans, ATCC10231
Procedure: as §1

[4] = tested on: Escherichia coli (ATCC 8739, Gram-negative); assay: as above; assay type: cell-based; settings: for MIC: Escherichia coli, ATCC8739
Procedure: as §1

rat red blood cells = assay: Haemolysis; assay type: cell-based
Procedure: Fresh rat red blood cells (RBCs) were diluted with PBS buffer to give an RBC stock suspension (4 vol % blood cells). A 100 μL aliquot of RBC suspension was added into a 96-well plate containing 100 μL oligomer solutions of various concentrations (ranging from 4 mg mL^−1 to 2 μg mL^−1 in serial two-fold dilutions in PBS). After 1 hour incubation at 37° C., the contents of each well were pipetted into a micro-centrifuge tube and centrifuged at 2000 rpm for 5 minutes. Aliquots (100 μL) of the supernatant were transferred to a new 96-well plate. Haemolytic activity was determined as a function of haemoglobin release by measuring OD576 of 100 μL of the supernatant using a microplate reader (TECAN). A control solution that contained only PBS was used as a reference for 0% haemolysis. Absorbance of red blood cells lysed with 0.5% Triton-X was taken as 100% haemolysis. The data were expressed as mean and S.D. of four replicates, and the tests were repeated two times.

S. aureus [5] = assay: Resistance studies, serial passage at sub-MIC; assay type: cell-based, Staphylococcus aureus; settings: for resistance to polymers IBN-CP1 or IBN-CP3 after growth with degradation product: media containing 2, 8, 16 and 100 μg/ml over one month
Procedure: The method was adapted from that of Yang and co-authors with modification [K. Fukushima, S. Liu, H. Wu, A. C. Engler, D. J. Coady, H. Maune, J. Pitera, A. Nelson, N. Wiradharma, S. Venkataraman, Y. Huang, W. Fan, J. Y. Ying, Y. Y. Yang, J. L. Hedrick. Nature Comm, 2013, 4:2861]. Drug resistance was induced by treating S. aureus repeatedly with degradable oligomers. First MICs of the tested oligomers were determined against S. aureus using the broth microdilution method. Then serial passaging was initiated by transferring bacterial suspension grown at the sub-MIC of the oligomers (½ of MIC at that passage) and was subjected to another MIC assay. After 24 hours incubation period, cells grown at the sub-MIC of the test compounds/antibiotics were once again transferred and assayed for MIC. The MIC against S. aureus was tested for 16 passages.
Drug-resistant behaviour of S. aureus was evaluated by recording the changes in the MIC normalized to that of the first passage. Conventional antibiotics vancomycin was used as the control.

P. aeruginosa = assay: Agar well diffusion assay; assay type: cell-based, Pseudomonas aeruginosa
Procedure: (§2) The degradable oligomers were dissolved in ethanol and glycerol at 0.5% w/v concentration. Agar plates were inoculated with bacteria and 6 mm wells were cut, into which 20 μL of solution was added. Plates were inoculated at 37° C. for 24 hours and zone of inhibitions measured using a pair of vernier calipers.

S. aureus [6] = assay: Agar well diffusion assay; assay type: cell-based, Staphylococcus aureus
Procedure: as §2

E. coli and S. aureus = assay: SEM observation of bacteria treated with oligomers; assay type: cell-based; settings: 4MIC, exposure two minutes
Procedure: Bacterial cells (3×10^8 CFU/mL) grown in MHB without or with the oligomers at 4MIC for 2 minutes were collected and centrifuged at 5000 rpm for 5 minutes. The precipitates were washed twice with PBS buffer. Then the samples were fixed with glutaraldehyde (2.5%) for 2 hours followed by washing with DI water. Dehydration of the samples was performed using a series of ethanol/water solution (35%, 50%, 75%, 90%, 95% and 100%). The dehydrated samples were mounted on copper tape. After drying for 2 days, the samples were further coated with platinum for imaging with JEOL JSM-7400F (Japan) field emission scanning electron microscope operated at an accelerating voltage of 5 keV.

[7] = Oligomer and polymer degradation by 1H NMR spectroscopy; assay type: physicochemical; settings: pH 6-8 buffered solutions, ambient conditions
Procedure: Sorenson's phosphate buffer (pH, 6.0, 7.0, 8.0), tris buffer (pH 6.0, 7.0, 8.0) and sodium citrate-citric acid buffer (pH 3.0, 4.0, 5.0) were prepared in deionized water at concentrations of 100 mM, as well as 10 mM for tris buffer solution. […] A 4 mg sample of imidazolium oligomer or polymer was dissolved in deuterated buffer solution with care taken to ensure complete solution of the compounds. […] Degradation of the carbonate and ester-linked compounds was observed by disappearance of the signal of the methylene protons adjacent to the carbonate or ester functional group, and/or appearance of the signal of the methylene protons adjacent to the hydroxyl group in the degradation product.

[8] = Critical gelation concentration in alcohols; assay type: physicochemical
Procedure: Gels were prepared by weighing the imidazolium oligomers directly into 4 mL glass vials and subsequently adding a known weight or volume of the solvent. The vials containing both the imidazolium and the solvent were either heated or sonicated to aid the dissolution process. The vials were left standing over night at ambient conditions. The gel state was evaluated by the stable-to-inversion-of-a-test-tube method. The critical gelation concentration (CGC) is defined as the lowest concentration of the gelator which leads to a stable gel.

E. coli = assay: Agar well diffusion assay; assay type: cell-based, Escherichia coli
Procedure: as §2

[9] = rat red blood cells, 1 hour, 37° C.
[10] = Staphylococcus aureus, ATCC6538; read-out: MIC S. aureus
[11] = 0.5% w/v solution in glycerol, compared with ethanol solution

Compound | MIC P. aeruginosa [1] [µg/mL] | MIC S. aureus [2] [µg/mL] | MIC C. albicans [3] [µg/mL] | MIC E. coli [4] [µg/mL] | HC10 (rat red blood cells; [9]) [µg/mL] | also measured
OCc1ccc(Cn2cc[n+](C/C=C/Cn3cc[n+](Cc4ccc(CO)cc4)c3)c2)cc1 [F-diol1] | – | – | – | – | >2000 | MIC ([1]; read-out: MIC P. aeruginosa): 2000 µg/mL; MIC ([1]; read-out: MIC PA): 2000 µg/mL; MIC [2, 10]: 125 µg/mL; MIC ([2]; Staphylococcus aureus, ATCC6538; read-out: MIC SA): 12 µg/mL; MIC ([3]; read-out: MIC C. albicans): > 2000 µg/mL; MIC ([3]; read-out: MIC CA): > 2000 µg/mL; MIC ([4]; read-out: MIC E. coli): > 2000 µg/mL; MIC ([4]; read-out: MIC EC): > 2000 µg/mL; HC10 (rat red blood cells): >2000 ppm; resistance to polymers IBN-CP1 or IBN-CP3 after growth with degradation product (S. aureus [5]): did not develop resistance
OCc1ccc(Cn2cc[n+](Cc3ccccc3Cn3cc[n+](Cc4ccc(CO)cc4)c3)c2)cc1 [F-diol3] | – | – | – | – | >2000 | MIC ([1]; read-out: MIC P. aeruginosa): > 4000 µg/mL; MIC [2, 10]: 500 µg/mL; MIC ([3]; read-out: MIC C. albicans): > 2000 µg/mL; MIC ([4]; read-out: MIC E. coli): > 2000 µg/mL; resistance to polymers IBN-CP1 or IBN-CP3 after growth with degradation product (S. aureus [5]): did not develop resistance
OCc1ccccc1Cn1cc[n+](C/C=C/C[n+]2ccn(Cc3ccccc3CO)c2)c1.[Br-].[Br-] [F-diol4] | >2000 | 250 | >2000 | 1000 | – | –
CCCCCCCCn1cc[n+](Cc2ccc(Cn3cc[n+](Cc4ccc(C[n+]5ccn(Cc6ccc(OCn7cc[n+](Cc8ccc(Cn9cc[n+](Cc%10ccc(Cn%11cc[n+](CCCCCCCC)c%11)cc%10)c9)cc8)c7)cc6)c5)cc4)c3)cc2)c1.[Br-].[Br-].[Br-].[Br-].[Br-].[Br-] [IBN-HC8] | 125 | 16 | 125 | 8 | >2000 | zone of inhibition (P. aeruginosa; 0.5% w/v in ethanol): comparable zones of inhibition compared to ethanol; zone of inhibition (P. aeruginosa; [11]): comparable efficacy; zone of inhibition (S. aureus [6]; 0.5% w/v in ethanol): larger zones of inhibition than ethanol on its own; zone of inhibition (S. aureus [6]; [11]): comparable efficacy; bacterial cell walls in SEM images (E. coli and S. aureus): disrupted and subsequently dissolved; passage at which MIC increase was observed (S. aureus [5]; sub-MIC levels, 16 passages): 8 passage; degradation in buffered solutions [7]: not significantly degraded; Critical gelation concentration ([8]; ethanol): 1.5 wt %; Critical gelation concentration ([8]; n-butanol): 1.0 wt %; Critical gelation concentration ([8]; n-propanol): 0.5 wt %; zone of inhibition (E. coli; 0.5% w/v in ethanol): larger zones of inhibition than ethanol on its own; zone of inhibition (E. coli; [11]): comparable efficacy
CN[C@H](CC(C)C)C(=O)N[C@H]1C(=O)N[C@@H](CC(N)=O)C(=O)N[C@H]2C(=O)N[C@H]3C(=O)N[C@H](C(=O)N[C@H](C(=O)O)c4cc(O)cc(O)c4-c4cc3ccc4O)[C@H](O)c3ccc(c(Cl)c3)Oc3cc2cc(c3O[C@@H]2O[C@H](CO)[C@@H](O)[C@H](O)[C@H]2O[C@H]2C[C@](C)(N)[C@H](O)[C@H](C)O2)Oc2ccc(cc2Cl)[C@H]1O [Vancomycin, reference compound] | – | – | – | – | >2000 | MIC ([2]; Staphylococcus aureus, ATCC6538, read-out: MIC S. aureus): 2 µg/mL (≈ 1.38 µM); change of MIC value over serial passages (S. aureus [5]; sub-MIC levels, 16 passages): quadrupled; passage at which MIC increase was observed (S. aureus [5]; sub-MIC levels, 16 passages): 5 passage
CCn1cc(C(=O)O)c(=O)c2cc(F)c(N3CCNCC3)cc21 [norfloxacin, reference compound] | – | – | – | – | – | MIC value relative to its original value (S. aureus [5]; by the 15th passage): over 120 times

Second part, led by results:

MIC P. aeruginosa [1] [µg/mL] | MIC S. aureus [2] [µg/mL] | MIC C. albicans [3] [µg/mL] | MIC E. coli [4] [µg/mL] | Compound | HC10 (rat red blood cells; [9]) [µg/mL] | also measured
250 | 125 | 62 | 16 | CCCCCCCCn1cc[n+](Cc2ccc(Cn3cc[n+](Cc4ccc(C[n+]5ccn(Cc6ccc(CN)cc6)c5)cc4)c3)cc2)c1.[Br-].[Br-].[Br-] [F1-CH2NH2] | 1000 | –
2000 | >2000 | 250 | 2000 | CCCCCCCCn1cc[n+](Cc2ccc(Cn3cc[n+](Cc4ccc(C[n+]5ccn(Cc6ccc(CO)cc6)c5)cc4)c3)cc2)c1.[Br-].[Br-].[Br-] [F1-CH2OH] | >2000 | hemolysis at highest concentration (rat red blood cells; 2000 μg/ml): did not induce hemolysis
>2000 | 62 | 500 | 31 | CCCCCCCCn1cc[n+](Cc2ccc(Cn3cc[n+](Cc4ccc(C[n+]5ccn(Cc6ccc(C(=O)O)cc6)c5)cc4)c3)cc2)c1.[Br-].[Br-].[Br-] [F1-COOH] | – | –
>2000 | 2000 | >2000 | >2000 | OCc1ccc(Cn2cc[n+](Cc3ccc(C[n+]4ccn(Cc5ccc(CO)cc5)c4)cc3)c2)cc1.[Br-].[Br-] [F-diol2] | >2000 | –
>2000 | 125 | >2000 | 250 | OCc1ccccc1Cn1cc[n+](Cc2ccccc2C[n+]2ccn(Cc3ccccc3CO)c2)c1.[Br-].[Br-] [F-diol5] | >2000 | –
